{
  "source": "patent US20080187927A1",
  "about": "“USING HUG1 PROMOTER AND A REPORTER GENE TO DETECT GENOTOXICITY AND GENOPROTECTION” (priority 2006, published 2008)",
  "key": {"SPY1101 (HUG1P-GFP)": {"system": "SPY1101 (HUG1P-GFP)", "description": "Yeast having a HUG1-GFP promoter/reporter construct (called SPY1101; genotype is W303 MA:Ta/a ura3-52/ura3-52 his3::hisG/his3::hisG leu2::hisG/leu2::hisG HUG1P-GFP::HIS3/HUG1P-HUG1) were derived from S. cerevisiae strain SPY810 (wild-type yeast; genotype is W303 MATa/a ura3-52/ura3-52 his3::hisG/his3::hisG/leu2::hisG/leu2::hisG) using a PCR-based gene deletion method. Longtine M, et al., “Additional modules for versatile and economical PCR-based gene deletion and modification in Saccharomyces cerevisiae,” Yeast 14:953-961 (1998), incorporated herein by reference as if set forth in its entirety. Briefly, plasmid pFA6a-GFP(S65T)-His3MX6 (kindly provided by John Pringle at The University of North Carolina at Chapel Hill (Chapel Hill, N.C.); see also, Longtine et al., supra.), which contains GFP-S65T, was isolated from Escherichia coli DHα with a QIAprep Spin Miniprep Kit (Qiagen; Santa Clarita, Calif.).\nYeast from Example 1 (SPY1101) were exposed to the genotoxins shown in Table 2, which included alkylating agents, oxidizing agents, ribonucleotide reductase inhibitors, UV mimetic agents, glycopeptide antibiotics, quinoline-based alkaloids and ionizing radiation. Each genotoxin was added directly to a culture of SPY1101. Fresh phleomycin (Sigma) was aliquoted in water at a concentration of 20 mg/ml and stored at −20° C. until culture exposure. Likewise, CPT (Sigma) was aliquoted in dimethylsulfoxide (DMSO) at a concentration of 10 mg/ml and stored at −20° C. until culture exposure. All samples exposed to CPT were adjusted with DMSO, such that the final concentration of DMSO in the culture was 1% (v/v), regardless of CPT dose. γ-ray exposure was done using a Cs^137 source (exposure was 7 Gy/min and ended when the desired dose was reached). For all genotoxins (except γ-ray), exposure was continuous.\nAll DNA damage experiments included a minimum of three independent trials. SPY1101 were grown in rich medium (see, Sherman, supra) at 30° C. and with gentle shaking at 250 rpm to mid log-phase and then diluted to an OD600 of 0.1. After dilution, the culture was divided into 10 ml aliquots for exposure to one of the DNA damaging agents listed above. One culture aliquot was treated as a control and received no genotoxin, while the other aliquots each received one of seven different doses of the genotoxin, as listed in Table 2. In addition, SPY810 (wild-type control) were similarly treated. All cultures were then returned to 30° C. for incubation.\nOne hour after exposure, 1 ml of each culture was removed, and the OD600 was recorded to monitor culture growth. The cells were washed in PBS, re-suspended in fresh PBS to an OD600 of 0.2 and then placed in the dark on ice until flow cytometry analysis. This process was repeated every hour until eight hours had passed since the initial genotoxin exposure. The process was also repeated at twenty-four hours after initial genotoxin exposure.\nFlow cytometry analysis was conducted as follows. For each replicate, at least 10,000 cells were analyzed for fluorescence using a flow cytometer (Becton Dickinson; Franklin Lakes, N.J.), and GFP induction analysis was performed with CellQuest™ and Flow-Jo software. Surviving cells were defined as whole cells (measured with light scattering) with intact cellular membranes (measured by exclusion of propidium iodide). All surviving cells were gated and used to measure GFP expression of the population. GFP expression histograms were prepared with WinMDI (available on the world wide web), using a live/dead gate based on propidium iodide exclusion. Histograms were created using a smoothing setting of 5.\nSPY1101 were also exposed to general cell stress. All general cell stress experiments consisted of a minimum of three independent trials. SPY1101 were grown in rich medium at 30° C. and with gentle shaking at 250 rpm to mid log-phase and then diluted to an OD600 of 0.1. After dilution, the culture was divided into aliquots."}, "SPY1102 (mag1Δ)": {"system": "SPY1102 (mag1Δ)", "test": "Viability of SPY1102 after genotoxin exposure", "format": "cell-based, S. cerevisiae", "details": "after four hours of exposure"}, "[1]": {"system": "SPY1102 (mag1Δ, HUG1P-GFP)", "experimental": "(§1) Briefly, two hours after exposure, 1 ml of each culture-was removed and the OD600 was recorded to monitor cell proliferation. The cells were then washed in PBS and re-suspended to an OD600 of 0.2, and placed in the dark on ice until flow cytometry analysis. This process was repeated after 4, 6 and 8 hours after exposure."}, "[2]": {"system": "SPY1103 (mre11aΔ, HUG1P-GFP)", "experimental": "Yeast having a MRE11 deletion (SPY1103; also called mre11aΔ) were created from SPY1101.\nas §1"}, "SPY810 (wild-type yeast)": {"system": "SPY810 (wild-type yeast)", "test": "Fluorescence of wild-type control yeast SPY810 after genotoxin exposure", "format": "cell-based, S. cerevisiae", "details": "0.01% MMS for six hours", "protocol": "In addition, SPY810 (wild-type control) were similarly treated.\nFlow cytometry analysis was conducted as follows. […] Histograms were created using a smoothing setting of 5."}, "[3]": {"system": "SPY1105 (mag1Δ/mre11bΔ, HUG1P-GFP)", "experimental": "as §1"}, "SPY1103 (mre11aΔ)": {"system": "SPY1103 (mre11aΔ)", "test": "Viability of SPY1103 after genotoxin exposure", "format": "cell-based, S. cerevisiae", "details": "exposed to MMS"}},
  "note": "Where a name gives a salt, the structure may show the parent alone. Read-outs that look alike come from different tables or passages of the source.",
  "data": [
    {"smiles": "Cl", "note": "[HCl]", "values": [
      {"measurement": "maximum induction of GFP fluorescence", "setting": "SPY1101 (HUG1P-GFP); 1, 5, 10 or 15% (v/v) 1 N HCl, positive threshold >2 fold", "value": 1.5, "unit": "fold"}
    ]},
    {"smiles": "COS(C)(=O)=O", "note": "[MMS, methyl methanesulfonate]", "values": [
      {"measurement": "viability compared to SPY810 or SPY1101", "setting": "SPY1102 (mag1Δ)", "value": "less viable"},
      {"measurement": "Relative Fluorescence", "setting": "[1]; 0.0005% MMS", "value": 34},
      {"measurement": "peak fluorescence", "setting": "[1]; 0.005% MMS", "value": 154, "unit": "fold"},
      {"measurement": "Relative Fluorescence", "setting": "[1]; dose 0.0001%, exposure 4 h", "value": 3.0},
      {"measurement": "fluorescence induction at peak fluorescence", "setting": "[2]; MMS, at its peak fluorescence", "value": 49, "unit": "fold"},
      {"measurement": "Relative Fluorescence", "setting": "[2]; dose 0.0005%, exposure 6 h", "value": 2.7},
      {"measurement": "fluorescence of wild type control", "setting": "SPY810 (wild-type yeast)", "value": "did not fluoresce"},
      {"measurement": "relative fluorescence induction", "setting": "[3]; 0.005% MMS (peak)", "value": 49, "unit": "fold"},
      {"measurement": "Relative Fluorescence", "setting": "[3]; dose 0.0001%, exposure 4 h", "value": 2.2},
      {"measurement": "Relative Fluorescence", "setting": "SPY1101 (HUG1P-GFP); 0.0005% MMS (dose-response)", "value": 4},
      {"measurement": "increase of fluorescence compared to untreated cells", "setting": "SPY1101 (HUG1P-GFP); 0.0005% MMS, after 6 hours", "value": 2.4, "unit": "fold"},
      {"measurement": "fluorescence upregulation", "setting": "SPY1101 (HUG1P-GFP); 0.005% MMS", "value": 97, "unit": "fold"},
      {"measurement": "optimum (peak) fluorescence", "setting": "SPY1101 (HUG1P-GFP); 0.01% MMS", "value": 1.48, "unit": "fold"},
      {"measurement": "increase of fluorescence (minimum induction time)", "setting": "SPY1101 (HUG1P-GFP); 0.01% MMS, after 75 minutes", "value": 3, "unit": "fold"},
      {"measurement": "Relative Fluorescence", "setting": "SPY1101 (HUG1P-GFP); dose 0.0005%, exposure 6 h", "value": 2.4},
      {"measurement": "viability compared to SPY1101", "setting": "SPY1103 (mre11aΔ)", "value": "no difference in viability"}
    ]},
    {"smiles": "C=O", "note": "[formaldehyde]", "values": [
      {"measurement": "dose-dependent GFP expression", "setting": "SPY1101 (HUG1P-GFP); doses of Table 2, up to 24 h", "value": "No dose-dependent induction of GFP expression"}
    ]}
  ]
}
